Reference: EP1191024A1, “Thiadiazines and their use as inhibitors of metalloproteinases” (Tschesche, Harald, priority 2000, dated 2002)

Assays:
MMP-1 = target: T1, MMP-1 (Homo sapiens, UniProt P03956); test: MMP microfluorometric profiling assay (fluorogenic Mca-peptide substrate); assay type: biochemical
T1 construct: MMP-1 from human rheumatoid synovial fibroblasts was purchased; purchased Calbiochem-Novabiochem Corporation, LaJolla; host or cells: human rheumatoid synovial fibroblasts
T1 sequence (P03956 100-469): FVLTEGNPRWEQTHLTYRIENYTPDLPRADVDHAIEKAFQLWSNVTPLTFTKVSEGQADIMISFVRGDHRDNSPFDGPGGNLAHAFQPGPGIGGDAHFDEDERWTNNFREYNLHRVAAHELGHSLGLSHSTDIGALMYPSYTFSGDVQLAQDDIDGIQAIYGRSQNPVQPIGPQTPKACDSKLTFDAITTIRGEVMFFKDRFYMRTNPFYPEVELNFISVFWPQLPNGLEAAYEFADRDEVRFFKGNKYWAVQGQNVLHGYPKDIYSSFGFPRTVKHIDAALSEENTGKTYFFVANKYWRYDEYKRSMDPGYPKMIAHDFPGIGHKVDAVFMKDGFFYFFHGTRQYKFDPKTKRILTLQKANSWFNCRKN
Protocol: (§1) The tested MMP enzymes were prepared more specifically in the laboratories of the applicants, with the exception of MMP-1. MMP-1 from human rheumatoid synovial fibroblasts was purchased from Calbiochem-Novabiochem Corporation, LaJolla. Preparation of the recombinant catalytic domain of human Gelatinase A (cdMMP-2): The catalytic domain of Pro-Gelatinase A was prepared using an E. coli expression system according to the method described by Kröger et al^[19]. The proenzyme was activated with 0.5 mM APMA at 37°C prior to use in the assay. Preparation of the recombinant catalytic domain of human neutrophile Collagenase (cdMMP-8^Met80): The enzyme was expressed in E. coli as an active variant by the method of Kleine et al^[20]. Preparation of PMNL-Gelatinase (MMP-9): Latent PMNL-pro-Gelatinase was prepared from human plasma buffy coat as described by Tschesche et al^[21]. PMNL-pro-Gelatinase was activated prior to use by incubation with Trypsin at 37°C for 10 min. Inactivation of Trypsin was accomplished with TKI. Preparation of the recombinant catalytic domain of human Macrophage Elastase (cdMMP-12): The catalytic domain of MMP-12 was expressed in E. coli. The overexpressed protein was isolated as inclusion bodies and the renatured protein was purified by affinity chromatography with a hydroxamate inhibitor coupled column as described^[22]. Preparation of the recombinant catalytic domain of human Collagenase-3 (cdMMP-13): Human pro-cdMMP-13 was prepared using an E. coli expression system according to the method described^[23]. The isolated pro-cdMMP-13 was activated prior to use by incubation with 5 mM HgCl2 for 2 h at 37°C. Preparation of the recombinant catalytic domain of Membrane-Type-1 MMP (cdMMP-14): The catalytic domain of MMP-14 was expressed in E. coli and was activated by autocatalysis^[24]. Preparation of the recombinant human ectodomain of Membrane-Type-1 MMP (ΔTM-MMP-14): The ectodomain of MMP-14 was expressed in Pichia Pastoris by the method of Roderfeld et al. and activated by yeast proteases (Furin-like-proteases) during maturation^[25].
(§2) The enzymatic activity was measured using a modified version of a resonance energy transfer fluorogenic assay as described^[26]. Progress curves were monitored by following the increase in fluorescence at 393 nm (λex = 328 nm), induced by the cleavage of the (7-methoxycoumarin-4-yl)acetyl-Pro-Leu-Gly-Leu-(3-[2,4-dinitro-phenyl]-L-2,3-diamino-propionyl)-Ala-Arg-NH2 (Mca-Pro-Leu-Gly-Leu-Dpa-Ala-Arg-NH2) fluorogenic substrate by MMPs. The fluorescent MCA-group is quenched by resonance energy transfer to the 2,4-dinitrophenyl group. Matrix metalloproteinases cleave this substrate at the Gly-Leu bond. Cleavage results in the loss of energy transfer and a large increase in fluorescence of the MCA group. This substrate is commercially available from Bachem, Switzerland.
(§3) Enzyme inhibition assays were carried out in MRB which consisted of 50 mM HEPES/NaOH, pH 7.0, 10 mM CaCl2 and 0,02% (w/v) PEG 8000 at 25°C. MMP microfluorometric profiling assay was done in white U-bottomed 96-well plates (Microfluor 1 White, Dynex, USA) with a final substrate concentration of 6 µM MCA-peptide, approximately 0.3 to 5 nM MMP with variable inhibitor concentrations and 2% DMSO vehicle. From a 1.5 mM stock (100% DMSO) the inhibitors were serially diluted with MRB to 15, 10, 5, 3, 1, 0.6, 0.3, 0.1, 0.05, 0.01 and 0.005 µM final assay concentration. Column 1, rows A through H, contained only DMSO for the "enzyme-only" wells in the assay. After preincubation for 30 min at 25°C the reaction was started by addition of substrate and the plate was read on a SpectraFluor Plus (Tecan, Germany) plate reader with excitation at 330 nm and emission at 405 nm with the gain set to 150. Each measurement was done in triplicate to ensure statistically significant results. […]

MMP-9 = target: T2, MMP-9 (Homo sapiens, UniProt P14780); test: as above; assay type: biochemical
T2 construct: from tissue; host or cells: human plasma buffy coat (PMNL)
T2 sequence (P14780 107-707 limits assumed): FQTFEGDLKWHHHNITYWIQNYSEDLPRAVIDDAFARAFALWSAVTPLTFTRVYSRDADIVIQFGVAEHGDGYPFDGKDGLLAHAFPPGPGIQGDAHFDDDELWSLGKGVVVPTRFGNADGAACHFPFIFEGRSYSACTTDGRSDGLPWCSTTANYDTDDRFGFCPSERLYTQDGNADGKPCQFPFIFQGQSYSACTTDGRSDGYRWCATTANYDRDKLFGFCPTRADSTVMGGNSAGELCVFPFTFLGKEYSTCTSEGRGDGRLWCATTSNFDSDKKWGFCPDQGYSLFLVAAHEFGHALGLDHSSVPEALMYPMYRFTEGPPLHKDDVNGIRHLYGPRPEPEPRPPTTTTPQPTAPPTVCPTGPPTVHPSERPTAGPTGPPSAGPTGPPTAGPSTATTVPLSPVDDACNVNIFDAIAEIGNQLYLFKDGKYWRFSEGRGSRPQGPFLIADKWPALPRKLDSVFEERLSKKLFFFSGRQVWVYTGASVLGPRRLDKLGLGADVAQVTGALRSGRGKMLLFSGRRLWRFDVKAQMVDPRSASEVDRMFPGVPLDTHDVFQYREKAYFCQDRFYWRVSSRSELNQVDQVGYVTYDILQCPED
Protocol: as §1, §2, §3

cdMMP-12 = target: T3, cdMMP-12 (Homo sapiens, UniProt P39900); test: as above; assay type: biochemical
T3 construct: The catalytic domain of MMP-12 was expressed in E. coli; made in house; host or cells: E. coli
T3 sequence (P39900 106-263 limits assumed): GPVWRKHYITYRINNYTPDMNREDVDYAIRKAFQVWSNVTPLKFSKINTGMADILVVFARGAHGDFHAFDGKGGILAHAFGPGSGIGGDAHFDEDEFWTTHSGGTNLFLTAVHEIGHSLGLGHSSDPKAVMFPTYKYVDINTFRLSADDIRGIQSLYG
Protocol: as §1, §2, §3

cdMMP-13 = cdMMP-13 (Homo sapiens, UniProt P45452); test: as above; assay type: biochemical; settings: read-out: cdMMP-13 IC50
Protocol: as §1, §2, §3

cdMMP-14 = target: T4, cdMMP-14 (Homo sapiens, UniProt P50281); test: as above; assay type: biochemical
T4 construct: made in house; host or cells: E. coli
Protocol: as §1, §2, §3

cdMMP-2 = cdMMP-2 (Homo sapiens, UniProt P08253); test: as above; assay type: biochemical; settings: read-out: cdMMP-2 IC50
cdMMP-2, sequence (P08253 110-446): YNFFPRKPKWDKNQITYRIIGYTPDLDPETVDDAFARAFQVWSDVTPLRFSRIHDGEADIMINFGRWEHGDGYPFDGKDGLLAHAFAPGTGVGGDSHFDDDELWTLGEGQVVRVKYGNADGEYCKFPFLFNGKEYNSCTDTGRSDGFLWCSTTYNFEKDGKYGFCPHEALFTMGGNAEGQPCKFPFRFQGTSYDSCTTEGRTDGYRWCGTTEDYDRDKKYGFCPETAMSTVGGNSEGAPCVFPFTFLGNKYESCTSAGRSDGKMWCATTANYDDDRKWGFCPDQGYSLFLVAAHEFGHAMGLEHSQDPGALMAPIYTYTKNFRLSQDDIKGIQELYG
Protocol: The tested MMP enzymes were prepared more specifically in the laboratories of the applicants, with the exception of MMP-1. MMP-1 from human rheumatoid synovial fibroblasts was purchased from Calbiochem-Novabiochem Corporation, LaJolla. Preparation of the recombinant catalytic domain of human Gelatinase A (cdMMP-2): The catalytic domain of Pro-Gelatinase A was prepared using an E. coli expression system according to the method described by Kröger et al^[19]. The proenzyme was activated with 0.5 mM APMA at 37°C prior to use in the assay. […] Preparation of PMNL-Gelatinase (MMP-9): Latent PMNL-pro-Gelatinase was prepared from human plasma buffy coat as described by Tschesche et al^[21]. PMNL-pro-Gelatinase was activated prior to use by incubation with Trypsin at 37°C for 10 min. Inactivation of Trypsin was accomplished with TKI. […] The overexpressed protein was isolated as inclusion bodies and the renatured protein was purified by affinity chromatography with a hydroxamate inhibitor coupled column as described^[22]. Preparation of the recombinant catalytic domain of human Collagenase-3 (cdMMP-13): Human pro-cdMMP-13 was prepared using an E. coli expression system according to the method described^[23]. The isolated pro-cdMMP-13 was activated prior to use by incubation with 5 mM HgCl2 for 2 h at 37°C.
as §2
Enzyme inhibition assays were carried out in MRB which consisted of 50 mM HEPES/NaOH, pH 7.0, 10 mM CaCl2 and 0,02% (w/v) PEG 8000 at 25°C. MMP microfluorometric profiling assay was done in white U-bottomed 96-well plates (Microfluor 1 White, Dynex, USA) with a final substrate concentration of 6 µM MCA-peptide, approximately 0.3 to 5 nM MMP with variable inhibitor concentrations and 2% DMSO vehicle. From a 1.5 mM stock (100% DMSO) the inhibitors were serially diluted with MRB to 15, 10, 5, 3, 1, 0.6, 0.3, 0.1, 0.05, 0.01 and 0.005 µM final assay concentration. Column 1, rows A through H, contained only DMSO for the "enzyme-only" wells in the assay. After preincubation for 30 min at 25°C the reaction was started by addition of substrate and the plate was read on a SpectraFluor Plus (Tecan, Germany) plate reader with excitation at 330 nm and emission at 405 nm with the gain set to 150. Each measurement was done in triplicate to ensure statistically significant results. The experiment was further controlled for background fluorescence of the substrate, for fluorescence of fully cleaved substrate and for fluorescence quenching or augmentation from solutions containing the test compounds.
Datapoints from eight different MMPs generated on the SpectraFluor Plus were directly visualized on a master Excel spreadsheet. The response of inhibition was determinated for each inhibitor concentration by comparing the amount of hydrolysis (fluorescence units generated over 30 minutes of hydrolysis) of wells containing compound with the "enzyme-only" wells in column 1. With the program GraFit (Erithacus Software Limited) a 4 parameter logistic fit to the dose-response data was used to calculate IC50 values for each compound.

MMPs = test: Ki determination in microfluorometric assay (Cheng-Prusoff, enzyme not specified); assay type: biochemical, human; settings: enzyme not given
Protocol: as §2
Enzyme inhibition assays were carried out in MRB which consisted of 50 mM HEPES/NaOH, pH 7.0, 10 mM CaCl2 and 0,02% (w/v) PEG 8000 at 25°C. […] After preincubation for 30 min at 25°C the reaction was started by addition of substrate and the plate was read on a SpectraFluor Plus (Tecan, Germany) plate reader with excitation at 330 nm and emission at 405 nm with the gain set to 150. […] The experiment was further controlled for background fluorescence of the substrate, for fluorescence of fully cleaved substrate and for fluorescence quenching or augmentation from solutions containing the test compounds. […]

SMILES	IC50 (MMP-1)	IC50 (MMP-9)	IC50 (cdMMP-12)	IC50 (cdMMP-13)	IC50 (cdMMP-14)	IC50 (cdMMP-2)	Ki (MMPs)
C[C@H](NS(=O)(=O)c1ccccc1)C(=O)NC1=NN=C(c2ccc(F)cc2)CS1 [Example 13, (2S)-N-[5-(4-Fluorophenyl)-6H-1,3,4-thiadiazin-2-yl]-2-[(phenylsulfonyl)amino]-propanamide]	500 nM	684 nM	338 nM	1170 nM	839 nM	743 nM	
CC(C)(NS(=O)(=O)c1ccccc1)C(=O)NC1=NN=C(c2ccc(Cl)cc2)CS1 [Example 20, N-[5-(4-Chlorophenyl)-6H-1,3,4-thiadiazin-2-yl]-2-methyl-2-[(phenylsulfonyl)-amino]propanamide]							~100 nM
